According to patent US20260327204A1, “DEGRADERS OF CYCLIN-DEPENDENT KINASE 12/13, COMPOSITIONS, AND USES THEREOF” (ZHEJIANG UNIVERSITY, priority 2023, published 2026):

Legend:
[1] = target: CDK12 (Homo sapiens, UniProt Q9NYV4); assay: Western blot degradation of CDK12 (Example 2); format: cell-based; parameters: degradation of CDK12/13 protein in leukemia cells KASUMI-1, MV4-11, and Jurkat; endogenous in cells; conditions: DC50 classes, cell line not given; for DC50: read-out: CDK12 degradation Activity
Experimental: (§1) Western blot was used to determine the degradation of CDK12/13 protein in leukemia cells KASUMI-1, MV4-11, and Jurkat. The two compounds with the best degradation effects were further validated for their ability to degrade CDK12/13 protein in breast cancer cells MDA-MB-231 using a concentration gradient.
(§2) • Cell lines: KASUMI-1, MV4-11, Jurkat, or MDA-MB-231 • Culture medium: DMEM/RIPM-1640+10% Hyclone serum • Compound dissolution method: Compounds were dissolved in DMSO to prepare a 50 mM stock solution, and then diluted to the corresponding concentrations.
(§3) (1) In vitro cell culture: The selected cells were cultured in a 37 °C constant temperature incubator with 5% CO2. Once the cell density reached 70-90%, they were passaged for subsequent experiments.
(§4) (2) Cell seeding: Cells were digested, and the cell suspension was transferred to a 1.5 mL Eppendorf tube. After centrifugation at 1,000 rpm for 5 min, the cells were resuspended in 2 mL of culture medium and counted. The cell suspension was seeded in a 24-well plate at a density of 200,000 cells per well and allowed to adhere for 8-12 h.
(§5) (3) Compound treatment: The 50 mM compound stock solution was diluted with cell culture medium to a final concentration of 0.01 μM-3 μM. Cells were incubated in a 37 °C incubator with 5% CO2 for 3 h-48 h. The DMSO group served as the negative control.
(§6) At the end of the treatment time, the cells were collected and washed once with PBS. An appropriate volume of 4% SDS was added to lyse the cells, and the mixture was sonicated until no longer viscous. After centrifugation at 12,000 rpm at room temperature for 30 min, the supernatant was transferred to a new EP tube for protein quantification.
(§7) The exposure results were quantitatively analyzed using Image J software. First, the grayscale values of the bands were calculated using Image J. Then, the grayscale value of the target protein was divided by the grayscale value of the internal reference protein for normalization. The calculation formula is: […]
(§8) Where A is the grayscale value and D is the degradation rate.
(§9) In the figures, CDK12 and CDK13 are the target proteins under study, and β-Actin and GAPDH are the internal reference proteins. Internal reference proteins are used to indicate the total protein amount in each experimental group for quantitative analysis.

[2] = target: CDK13 (Homo sapiens, UniProt Q14004); assay: Western blot degradation of CDK13 (Example 2); format: cell-based; parameters: degradation of CDK12/13 protein in leukemia cells KASUMI-1, MV4-11, and Jurkat; endogenous in cells; conditions: DC50 classes, cell line not given; for DC50: read-out: CDK13 degradation Activity
Experimental: as §1, §2, §3, §4, §5, §6, §7, §8, §9

Sequence of CDK12 (Q9NYV4 whole entry): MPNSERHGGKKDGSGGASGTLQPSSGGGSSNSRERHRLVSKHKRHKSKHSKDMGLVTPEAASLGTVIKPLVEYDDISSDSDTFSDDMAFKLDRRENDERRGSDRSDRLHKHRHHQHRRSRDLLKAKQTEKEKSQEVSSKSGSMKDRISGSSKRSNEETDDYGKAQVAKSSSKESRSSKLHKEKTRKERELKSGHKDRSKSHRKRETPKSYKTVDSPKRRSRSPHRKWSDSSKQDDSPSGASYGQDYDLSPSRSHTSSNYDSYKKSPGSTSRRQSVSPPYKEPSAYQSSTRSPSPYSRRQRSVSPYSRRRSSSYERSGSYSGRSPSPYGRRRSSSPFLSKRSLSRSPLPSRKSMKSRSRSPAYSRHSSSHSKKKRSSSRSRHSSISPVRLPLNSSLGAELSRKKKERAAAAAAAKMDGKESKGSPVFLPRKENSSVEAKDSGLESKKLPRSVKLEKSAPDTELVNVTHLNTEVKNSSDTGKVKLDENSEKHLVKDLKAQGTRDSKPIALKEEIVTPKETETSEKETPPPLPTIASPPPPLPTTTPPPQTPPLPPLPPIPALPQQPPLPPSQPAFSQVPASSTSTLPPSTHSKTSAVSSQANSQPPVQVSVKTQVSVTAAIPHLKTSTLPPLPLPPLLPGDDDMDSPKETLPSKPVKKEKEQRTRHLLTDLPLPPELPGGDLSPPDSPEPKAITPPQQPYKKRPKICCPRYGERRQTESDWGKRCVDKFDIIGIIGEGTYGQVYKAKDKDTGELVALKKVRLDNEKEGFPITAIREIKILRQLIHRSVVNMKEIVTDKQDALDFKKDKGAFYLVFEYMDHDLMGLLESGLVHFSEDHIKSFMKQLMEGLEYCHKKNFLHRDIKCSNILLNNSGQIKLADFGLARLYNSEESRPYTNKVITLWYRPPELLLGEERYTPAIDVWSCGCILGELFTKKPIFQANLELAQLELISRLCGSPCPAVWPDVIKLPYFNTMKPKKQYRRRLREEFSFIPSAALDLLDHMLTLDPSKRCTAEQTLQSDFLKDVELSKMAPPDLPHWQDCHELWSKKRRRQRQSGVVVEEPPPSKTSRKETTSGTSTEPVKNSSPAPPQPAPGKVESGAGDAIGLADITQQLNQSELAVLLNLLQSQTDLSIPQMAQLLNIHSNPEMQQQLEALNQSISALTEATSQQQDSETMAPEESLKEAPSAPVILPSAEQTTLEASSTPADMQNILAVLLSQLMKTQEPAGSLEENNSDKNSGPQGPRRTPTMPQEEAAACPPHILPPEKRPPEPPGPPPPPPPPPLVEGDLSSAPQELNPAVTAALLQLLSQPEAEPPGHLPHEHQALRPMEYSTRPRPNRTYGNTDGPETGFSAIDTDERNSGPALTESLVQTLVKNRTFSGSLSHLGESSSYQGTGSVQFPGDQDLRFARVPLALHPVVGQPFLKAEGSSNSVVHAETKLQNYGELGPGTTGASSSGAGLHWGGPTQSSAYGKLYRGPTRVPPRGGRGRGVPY
Sequence of CDK12 (O75909 whole entry partner): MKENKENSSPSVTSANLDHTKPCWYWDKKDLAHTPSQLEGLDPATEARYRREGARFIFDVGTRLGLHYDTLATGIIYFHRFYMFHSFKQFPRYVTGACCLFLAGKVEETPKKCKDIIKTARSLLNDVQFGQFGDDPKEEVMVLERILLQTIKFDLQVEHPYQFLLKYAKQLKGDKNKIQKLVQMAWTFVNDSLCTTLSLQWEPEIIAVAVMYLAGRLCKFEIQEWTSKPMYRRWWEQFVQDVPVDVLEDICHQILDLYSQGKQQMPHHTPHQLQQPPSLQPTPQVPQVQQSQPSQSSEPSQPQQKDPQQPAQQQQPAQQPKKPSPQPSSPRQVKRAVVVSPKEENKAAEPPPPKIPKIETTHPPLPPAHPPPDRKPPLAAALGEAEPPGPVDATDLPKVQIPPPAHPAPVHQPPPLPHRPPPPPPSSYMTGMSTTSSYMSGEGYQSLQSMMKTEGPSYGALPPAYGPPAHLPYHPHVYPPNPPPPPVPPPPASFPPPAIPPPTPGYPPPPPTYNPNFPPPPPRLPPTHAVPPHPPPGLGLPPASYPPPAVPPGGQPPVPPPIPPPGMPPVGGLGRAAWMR
Sequence of CDK13 (Q14004 whole entry): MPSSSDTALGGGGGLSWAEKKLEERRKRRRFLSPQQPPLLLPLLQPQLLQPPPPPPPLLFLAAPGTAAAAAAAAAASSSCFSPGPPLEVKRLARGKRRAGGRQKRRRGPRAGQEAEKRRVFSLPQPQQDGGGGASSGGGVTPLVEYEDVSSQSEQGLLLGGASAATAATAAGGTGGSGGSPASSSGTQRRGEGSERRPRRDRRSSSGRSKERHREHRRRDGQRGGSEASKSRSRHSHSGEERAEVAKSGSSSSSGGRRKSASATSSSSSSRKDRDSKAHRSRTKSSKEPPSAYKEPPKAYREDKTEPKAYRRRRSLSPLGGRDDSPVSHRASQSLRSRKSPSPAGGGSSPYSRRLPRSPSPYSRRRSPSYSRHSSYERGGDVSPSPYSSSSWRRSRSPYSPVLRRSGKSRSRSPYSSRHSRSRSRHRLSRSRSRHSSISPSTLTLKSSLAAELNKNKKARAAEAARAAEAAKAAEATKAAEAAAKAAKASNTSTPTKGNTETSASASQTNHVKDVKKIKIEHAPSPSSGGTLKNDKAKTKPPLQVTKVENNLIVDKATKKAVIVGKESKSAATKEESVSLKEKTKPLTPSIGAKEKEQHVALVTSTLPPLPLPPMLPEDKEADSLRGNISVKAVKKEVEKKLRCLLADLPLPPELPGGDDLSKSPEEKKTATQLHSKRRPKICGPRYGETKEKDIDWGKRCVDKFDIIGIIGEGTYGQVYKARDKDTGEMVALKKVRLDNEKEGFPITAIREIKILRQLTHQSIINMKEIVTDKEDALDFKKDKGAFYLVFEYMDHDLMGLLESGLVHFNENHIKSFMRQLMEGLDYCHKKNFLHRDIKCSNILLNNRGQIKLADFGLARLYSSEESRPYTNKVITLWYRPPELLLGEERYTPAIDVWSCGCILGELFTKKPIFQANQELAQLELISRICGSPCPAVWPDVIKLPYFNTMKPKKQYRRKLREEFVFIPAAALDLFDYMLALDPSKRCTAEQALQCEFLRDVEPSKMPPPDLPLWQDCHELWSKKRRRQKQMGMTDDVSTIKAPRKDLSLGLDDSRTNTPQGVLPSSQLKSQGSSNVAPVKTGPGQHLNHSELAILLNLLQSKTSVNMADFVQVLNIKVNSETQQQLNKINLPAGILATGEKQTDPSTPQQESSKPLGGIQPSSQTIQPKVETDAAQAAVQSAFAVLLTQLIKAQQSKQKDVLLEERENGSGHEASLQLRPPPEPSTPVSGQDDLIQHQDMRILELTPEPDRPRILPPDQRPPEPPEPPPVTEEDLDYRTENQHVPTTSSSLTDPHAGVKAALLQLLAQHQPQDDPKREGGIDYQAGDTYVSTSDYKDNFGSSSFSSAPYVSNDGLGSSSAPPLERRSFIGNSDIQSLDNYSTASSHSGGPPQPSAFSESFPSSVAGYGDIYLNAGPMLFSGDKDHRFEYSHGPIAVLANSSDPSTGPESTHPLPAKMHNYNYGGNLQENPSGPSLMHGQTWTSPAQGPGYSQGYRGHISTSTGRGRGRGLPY
Sequence of CDK13 (O75909 whole entry partner): as the sequence (O75909 whole entry partner) above

| SMILES | DC50 [1] | CDK12 degradation Activity [1] | CDK13 degradation Activity [2] | DC50 [2] |
| --- | --- | --- | --- | --- |
| Cc1ncsc1-c1ccc([C@H](C)NC(=O)[C@@H]2C[C@@H](O)CN2C(=O)[C@@H](NC(=O)CN2CCN(c3ccc(-c4ccc(N(C(=O)NCc5ccccc5)[C@H]5CC[C@H](Nc6ccc(C#N)cn6)CC5)cc4)cn3)CC2)C(C)(C)C)cc1 (racemic) [Formula 73] | < 100 nM |  |  | < 100 nM |
| N#Cc1ccc(N[C@H]2CC[C@H](N(C(=O)NCc3ccccc3)c3ccc(-c4ccc(OCCOCCNc5cccc6c5C(=O)N(C5CCC(=O)NC5=O)C6=O)nc4)cc3)CC2)nc1 (stereo partly shown) [Formula 32] | 1000 to 3000 nM |  |  | 500 to 1000 nM |
| Cc1ncsc1-c1ccc([C@H](C)NC(=O)[C@@H]2C[C@@H](O)CN2C(=O)[C@@H](NC(=O)CN2CCN(c3ncc(-c4ccc(N(C(=O)NCc5ccccc5)[C@H]5CC[C@H](Nc6ccc(C#N)cn6)CC5)cc4)cn3)CC2)C(C)(C)C)cc1 [Formula 79] | < 100 nM |  |  | < 100 nM |
| Cc1ncsc1-c1ccc([C@H](C)NC(=O)[C@@H]2C[C@@H](O)CN2C(=O)[C@@H](NC(=O)CN2CCN(c3ccc(-c4ccc(N(C(=O)NCc5ccccc5)[C@H]5CC[C@H](Nc6ccc(C#N)cn6)CC5)cc4)cn3)CC2)C(C)(C)C)cc1 [Formula 71] |  |  |  | < 100 nM |
| N#Cc1ccc(N[C@H]2CC[C@H](N(C(=O)NCc3ccccc3)c3ccc(-c4ccc(=O)n(CCOCCOCCOCCOCCOCCNc5cccc6c5C(=O)N(C5CCC(=O)NC5=O)C6=O)c4)cc3)CC2)nc1 (stereo partly shown) [Formula 50] | 3000 to 10000 nM |  |  | 3000 to 10000 nM |
| Cc1ncsc1-c1ccc([C@H](C)NC(=O)[C@@H]2C[C@@H](O)CN2C(=O)[C@@H](NC(=O)CN2CCN(c3ncc(-c4ccc(N(C(=O)NCc5ccccc5)[C@H]5CC[C@H](Nc6ccc(C#N)cn6)CC5)cc4)cn3)CC2)C(C)(C)C)cc1 [Formula 84] | < 100 nM |  |  | < 100 nM |
| Cc1ncsc1-c1ccc([C@H](C)NC(=O)[C@@H]2C[C@@H](O)CN2C(=O)[C@@H](NC(=O)CN2CCN(c3ncc(-c4ccc(N(C(=O)NCc5ccccc5)[C@H]5CC[C@H](Nc6ccc(C#N)cn6)CC5)cc4)cn3)CC2)C(C)(C)C)cc1 [Formula 86] | < 100 nM |  |  | < 100 nM |
| Cc1ncsc1-c1ccc([C@H](C)NC(=O)[C@@H]2C[C@@H](O)CN2C(=O)[C@@H](NC(=O)CN2CCN(c3ccc(-c4ccc(N(C(=O)NCc5ccccc5)[C@H]5CC[C@H](Nc6ccc(C#N)cn6)CC5)cc4)cn3)CC2)C(C)(C)C)cc1 [Formula 76] |  |  |  | < 100 nM |
| Cc1ncsc1-c1ccc([C@H](C)NC(=O)[C@@H]2C[C@@H](O)CN2C(=O)[C@@H](NC(=O)CN2CCN(c3ncc(-c4ccc(N(C(=O)NCc5ccccc5)[C@H]5CC[C@H](Nc6ccc(C#N)cn6)CC5)cc4)cn3)CC2)C(C)(C)C)cc1 [Formula 80] | < 100 nM |  |  | < 100 nM |
| N#Cc1ccc(N[C@H]2CC[C@H](N(C(=O)NCc3ccccc3)c3ccc(-c4ccc(=O)n(CCOCCOCCOCCNc5cccc6c5C(=O)N(C5CCC(=O)NC5=O)C6=O)c4)cc3)CC2)nc1 (stereo partly shown) [Formula 48] | 3000 to 10000 nM |  | − |  |
| Cc1ncsc1-c1ccc([C@H](C)NC(=O)[C@@H]2C[C@@H](O)CN2C(=O)[C@@H](NC(=O)CN2CCN(c3ncc(-c4ccc(N(C(=O)NCc5ccccc5)[C@H]5CC[C@H](Nc6ccc(C#N)cn6)CC5)cc4)cn3)CC2)C(C)(C)C)cc1 (racemic) [Formula 81] | < 100 nM |  |  | < 100 nM |
| Cc1ncsc1-c1ccc([C@H](C)NC(=O)[C@@H]2C[C@@H](O)CN2C(=O)[C@@H](NC(=O)CN2CCN(c3ccc(-c4ccc(N(C(=O)NCc5ccccc5)[C@H]5CC[C@H](Nc6ccc(C#N)cn6)CC5)cc4)cn3)CC2)C(C)(C)C)cc1 [Formula 78] |  |  |  | < 100 nM |
| N#Cc1ccc(N[C@H]2CC[C@H](N(C(=O)NCc3ccccc3)c3ccc(-c4ccc(=O)n(CCOCCOCCOCCOCCNc5cccc6c5C(=O)N(C5CCC(=O)NC5=O)C6=O)c4)cc3)CC2)nc1 (stereo partly shown) [Formula 49] | 500 to 1000 nM |  |  | 1000 to 3000 nM |
| Cc1ncsc1-c1ccc([C@H](C)NC(=O)[C@@H]2C[C@@H](O)CN2C(=O)[C@@H](NC(=O)CN2CCN(c3ccc(-c4ccc(N(C(=O)NCc5ccccc5)[C@H]5CC[C@H](Nc6ccc(C#N)cn6)CC5)cc4)cn3)CC2)C(C)(C)C)cc1 [Formula 75] |  |  |  | < 100 nM |
| Cc1ncsc1-c1ccc([C@H](C)NC(=O)[C@@H]2C[C@@H](O)CN2C(=O)[C@@H](NC(=O)CN2CCN(c3ccc(-c4ccc(N(C(=O)NCc5ccccc5)[C@H]5CC[C@H](Nc6ccc(C#N)cn6)CC5)cc4)cn3)CC2)C(C)(C)C)cc1 [Formula 77] |  |  |  | < 100 nM |
| Cc1ncsc1-c1ccc([C@H](C)NC(=O)[C@@H]2C[C@@H](O)CN2C(=O)[C@@H](NC(=O)CN2CCN(c3ccc(-c4ccc(N(C(=O)NCc5ccccc5)[C@H]5CC[C@H](Nc6ccc(C#N)cn6)CC5)cc4)cn3)CC2)C(C)(C)C)cc1 [Formula 74] |  |  |  | < 100 nM |
| Cc1ncsc1-c1ccc([C@H](C)NC(=O)[C@@H]2C[C@@H](O)CN2C(=O)[C@@H](NC(=O)CN2CCN(c3ccc(-c4ccc(N(C(=O)NCc5ccccc5)[C@H]5CC[C@H](Nc6ccc(C#N)cn6)CC5)cc4)cn3)CC2)C(C)(C)C)cc1 [Formula 72] |  |  |  | < 100 nM |

Second part, led by results:

| DC50 [1] | CDK12 degradation Activity [1] | CDK13 degradation Activity [2] | SMILES | DC50 [2] |
| --- | --- | --- | --- | --- |
| 1000 to 3000 nM |  |  | Cc1ncsc1-c1ccc([C@H](C)NC(=O)[C@@H]2C[C@@H](O)CN2C(=O)[C@@H](NC(=O)COc2ccc(-c3ccc(N(C(=O)NCc4ccccc4)[C@H]4CC[C@H](Nc5ccc(C#N)cn5)CC4)cc3)cn2)C(C)(C)C)cc1 [Formula 6] | 500 to 1000 nM |
|  | − | − | Cc1ncsc1-c1ccc([C@H](C)NC(=O)[C@@H]2C[C@@H](O)CN2C(=O)[C@@H](NC(=O)CC#CC2CCN(c3ccc(-c4ccc(N(C(=O)NCc5ccccc5)[C@H]5CC[C@H](Nc6ccc(C#N)cn6)CC5)cc4)cn3)CC2)C(C)(C)C)cc1 [Formula 19] |  |
| 1000 to 3000 nM |  |  | Cc1ncsc1-c1ccc([C@H](C)NC(=O)[C@@H]2C[C@@H](O)CN2C(=O)[C@@H](NC(=O)COCCOCCOCCOCCn2cc(-c3ccc(N(C(=O)NCc4ccccc4)[C@H]4CC[C@H](Nc5ccc(C#N)cn5)CC4)cc3)ccc2=O)C(C)(C)C)cc1 [Formula 59] | 1000 to 3000 nM |
|  | − | − | Cc1ncsc1-c1ccc([C@H](C)NC(=O)[C@@H]2C[C@@H](O)CN2C(=O)[C@@H](NC(=O)CC#CC2CN(c3ccc(N(C(=O)NCc4ccccc4)[C@H]4CC[C@H](Nc5ccc(C#N)cn5)CC4)cc3)C2)C(C)(C)C)cc1 [Formula 24] |  |
|  | − | − | Cc1ncsc1-c1ccc([C@H](C)NC(=O)[C@@H]2C[C@@H](O)CN2C(=O)[C@@H](NC(=O)N2CC3(CCN(c4ccc(N(C(=O)NCc5ccccc5)[C@H]5CC[C@H](Nc6ccc(C#N)cn6)CC5)cc4)CC3)C2)C(C)(C)C)cc1 [Formula 55] |  |
| 1000 to 3000 nM |  |  | N#Cc1ccc(N[C@H]2CC[C@H](N(C(=O)NCc3ccccc3)c3ccc(N4CCN(CCOCCOCCNc5cccc6c5C(=O)N(C5CCC(=O)NC5=O)C6=O)CC4)cc3)CC2)nc1 (stereo partly shown) [Formula 39] | 3000 to 10000 nM |
| 1000 to 3000 nM |  |  | N#Cc1ccc(N[C@H]2CC[C@H](N(C(=O)NCc3ccccc3)c3ccc(-c4ccc(OCCNc5cccc6c5C(=O)N(C5CCC(=O)NC5=O)C6=O)nc4)cc3)CC2)nc1 (stereo partly shown) [Formula 37] | 500 to 1000 nM |
| 1000 to 3000 nM |  |  | Cc1ncsc1-c1ccc([C@H](C)NC(=O)[C@@H]2C[C@@H](O)CN2C(=O)[C@@H](NC(=O)CN2CCN(c3ccc(N(C(=O)NCc4ccccc4)[C@H]4CC[C@H](Nc5ccc(C#N)cn5)CC4)cc3)CC2)C(C)(C)C)cc1 [Formula 10] | 1000 to 3000 nM |
| 1000 to 3000 nM |  |  | N#Cc1ccc(N[C@H]2CC[C@H](N(C(=O)NCc3ccccc3)c3ccc(N4CCN(CCNc5cccc6c5C(=O)N(C5CCC(=O)NC5=O)C6=O)CC4)cc3)CC2)nc1 (stereo partly shown) [Formula 42] | 1000 to 3000 nM |
| 3000 to 10000 nM |  | − | Cc1ncsc1-c1ccc([C@H](C)NC(=O)[C@@H]2C[C@@H](O)CN2C(=O)[C@@H](NC(=O)N2CCC3(CC2)CCN(c2ccc(N(C(=O)NCc4ccccc4)[C@H]4CC[C@H](Nc5ccc(C#N)cn5)CC4)cn2)CC3)C(C)(C)C)cc1 [Formula 52] |  |
| 500 to 1000 nM |  |  | Cc1ncsc1-c1ccc([C@H](C)NC(=O)[C@@H]2C[C@@H](O)CN2C(=O)[C@@H](NC(=O)CN2CCC(Oc3ccc(-c4ccc(N(C(=O)NCc5ccccc5)[C@H]5CC[C@H](Nc6ccc(C#N)cn6)CC5)cc4)cn3)CC2)C(C)(C)C)cc1 [Formula 11] | 100 to 500 nM |
